Molecular target: GzmB (Homo sapiens, UniProt P10144)
Assay: Inhibition of fibronectin cleavage by GzmB
Type: biochemical
Settings: 20 nM granzyme B, 30° C.; for inhibition at 0.62 µM: 0.62 uM inhibitor, read-out: Percent Inhibition at Inhibitor Concentration 0.62 uM; for inhibition at 5.56 µM: 5.56 uM inhibitor, read-out: Percent Inhibition at Inhibitor Concentration 5.56 uM; for inhibition at 50 µM: 50 uM inhibitor, read-out: Percent Inhibition at Inhibitor Concentration 50 uM
Method: Black, 96 well high-binding assay plates (Griener Bio-one) were treated overnight at 4° C. with 40 uL of 8 ug/mL Hilyte Fluor 488 labeled Fibronectin (Cytoskeleton, Inc). After fibronectin coating, plates were washed 3 times in buffer (20 mM Tris-HCl, pH 7.4, 20 mM NaCl) then once with granzyme B assay buffer (50 mM HEPES, pH 7.5, 0.1% CHAPS). After washing, 50 uL of granzyme B assay buffer was added to each fibronectin-coated well. In a separate non-binding 96 well assay plate 5 uL of 20× inhibitor serial dilution stocks were added to 45 uL of 2.22×GzmB mix to establish inhibition (enzyme/inhibitor mixes were all prepared in granzyme B assay buffer and were incubated first at room temperature for 20 minutes, then at 30° C. for another 10 minutes). After incubation, 50 uL of this 2× enzyme/inhibitor mix was added to the corresponding coated well to initiate fibronectin cleavage (20 nM final granzyme B concentration, 8-point inhibitor dilution series starting at 50 uM). The assay was conducted at 30° C. in the TECAN plate reader (TECAN INFINITE® M1000 Pro), which was programmed to monitor the kinetic fluorescence polarization signal (filter set Ex/Em 470 nm/527 nm) with readings taken every minute, for 1 hour. Proteolytic activity was evaluated as the rate of fluorescence enhancement in the parallel emission over the linear range of the reaction. % Inhibition values were calculated from assay controls and the resulting date is shown in Table 6.

Sequence of GzmB (P10144 21-247): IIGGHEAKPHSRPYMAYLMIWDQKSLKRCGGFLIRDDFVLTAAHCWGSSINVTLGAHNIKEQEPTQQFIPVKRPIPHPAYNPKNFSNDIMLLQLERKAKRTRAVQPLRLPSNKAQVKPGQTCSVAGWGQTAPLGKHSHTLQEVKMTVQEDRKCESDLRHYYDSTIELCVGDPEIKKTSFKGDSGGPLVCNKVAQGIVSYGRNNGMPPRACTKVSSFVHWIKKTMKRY

inhibition at 0.62 µM [%]	inhibition at 5.56 µM [%]	inhibition at 50 µM [%]	Compound
35	70	86	O=C(O)CCC(=O)N[C@H](C(=O)NCC(=O)N1C[C@H](C2CCCCC2)C[C@H]1C(=O)NCc1nn[nH]n1)C1CCCC1 [Compound C5, 4-(((S)-2-((2-((2S,4S)-2-(((2H-tetrazol-5-yl)methyl)carbamoyl)-4-cyclohexylpyrrolidin-1-yl)-2-oxoethyl)amino)-1-cyclopentyl-2-oxoethyl)amino)-4-oxobutanoic acid]
28	58	81	CC[C@H](C)[C@H](NC(=O)CCC(=O)O)C(=O)NCC(=O)N1C[C@H](Sc2ccccc2)C[C@H]1C(=O)NCc1nn[nH]n1 [Compound C13, 4-(((2S,3S)-1-((2-((2S,4R)-2-(((2H-tetrazol-5-yl)methyl)carbamoyl)-4-(phenylthio)pyrrolidin-1-yl)-2-oxoethyl)amino)-3-methyl-1-oxopentan-2-yl)amino)-4-oxobutanoic acid]
40	76	84	CC[C@H](C)[C@H](NC(=O)Cc1ccccc1)C(=O)NCC(=O)N1C[C@H](C2CCCCC2)C[C@H]1C(=O)NCc1nn[nH]n1 [Compound C2, (2S,4S)—N-((2H-tetrazol-5-yl)methyl)-4-cyclohexyl-1-(2-((2S,3S)-3-methyl-2-(2-phenylacetamido)pentanamido)acetyl)pyrrolidine-2-carboxamide]

From US9969770B2, “Proline compounds as Granzyme B inhibitors” (viDA Therapeutics Inc., priority 2014, dated 2018)
